{
  "source": "PubChem BioAssay AID1963847",
  "about": "(Molecular Pharmacology Branch, DTP, NCI, 2024);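 further: spheroids exposed to compounds for one week before readout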;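 on viability, T/C: luminescence used as stand-in measure of viable cells; 100% = DMSO vehicle control viability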",
  "test_system": "415267-285-R-J2-PDC complex spheroid viability",
  "assay": "Anticancer human tumor 415267-285-R-J2-PDC patient-derived breast carcinoma cell line growth inhibition [POLQ]",
  "settings": "for IC50: curve of first compound; for viability, T/C: stronger effect = lower value",
  "summary_of_the_method": "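Complex spheroid viability model combining PDC tumour cells with endothelial (HUVEC) and MSC stromal cells. Novobiocin, ART-558 or RP6685 were tested singly and in combination with standard and investigational anticancer drugs. Each was titrated in half-log steps from near clinical Cmax, or from 10 microM where Cmax was unknown.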",
  "key": {"[1]": {"settings": "second compound 0.0316 µM, first compound 0.0316 µM"}, "[2]": {"settings": "second compound 0.0316 µM, first compound 0.1 µM"}, "[3]": {"settings": "second compound 0.0316 µM, first compound 0.316 µM"}, "[4]": {"settings": "second compound 0.0316 µM, first compound 1 µM"}, "[5]": {"settings": "second compound 0.0316 µM, first compound 3.16 µM"}, "[6]": {"settings": "second compound 0.0316 µM, first compound 10 µM"}, "[7]": {"settings": "second compound 0.1 µM, first compound 0.0316 µM"}, "[8]": {"settings": "second compound 0.1 µM, first compound 0.1 µM"}, "[9]": {"settings": "second compound 0.1 µM, first compound 0.316 µM"}, "[10]": {"settings": "second compound 0.1 µM, first compound 1 µM"}, "[11]": {"settings": "second compound 0.1 µM, first compound 3.16 µM"}, "[12]": {"settings": "second compound 0.1 µM, first compound 10 µM"}, "[13]": {"settings": "second compound 0.316 µM, first compound 0.0316 µM"}, "[14]": {"settings": "second compound 0.316 µM, first compound 0.1 µM"}, "[15]": {"settings": "second compound 0.316 µM, first compound 0.316 µM"}, "[16]": {"settings": "second compound 0.316 µM, first compound 1 µM"}, "[17]": {"settings": "second compound 0.316 µM, first compound 3.16 µM"}, "[18]": {"settings": "second compound 0.316 µM, first compound 10 µM"}, "[19]": {"settings": "second compound 1 µM, first compound 0.0316 µM"}, "[20]": {"settings": "second compound 1 µM, first compound 0.1 µM"}, "[21]": {"settings": "second compound 1 µM, first compound 0.316 µM"}, "[22]": {"settings": "second compound 1 µM, first compound 1 µM"}, "[23]": {"settings": "second compound 1 µM, first compound 3.16 µM"}, "[24]": {"settings": "second compound 1 µM, first compound 10 µM"}, "[25]": {"settings": "second compound 3.16 µM, first compound 0.0316 µM"}, "[26]": {"settings": "second compound 3.16 µM, first compound 0.1 µM"}, "[27]": {"settings": "second compound 3.16 µM, first compound 0.316 µM"}, "[28]": {"settings": "second compound 3.16 µM, first compound 1 µM"}, "[29]": {"settings": "second compound 3.16 µM, first compound 3.16 µM"}, "[30]": {"settings": "second compound 3.16 µM, first compound 10 µM"}, "[31]": {"settings": "second compound 10 µM, first compound 0.0316 µM"}, "[32]": {"settings": "second compound 10 µM, first compound 0.1 µM"}, "[33]": {"settings": "second compound 10 µM, first compound 0.316 µM"}, "[34]": {"settings": "second compound 10 µM, first compound 1 µM"}, "[35]": {"settings": "second compound 10 µM, first compound 3.16 µM"}, "[36]": {"settings": "second compound 10 µM, first compound 10 µM"}},
  "data": [
    {"smiles": "CCc1cc2c(N3CCc4c(cc(Cn5ccnc5)cc4-c4cn(C)nc4C(F)(F)F)C3=O)cc(C)nc2c(OC)n1", "note": "+ COC1C(OC(N)=O)C(O)C(Oc2ccc3c(O)c(NC(=O)c4ccc(O)c(CC=C(C)C)c4)c(=O)oc3c2C)OC1(C)C", "values": [
      {"measurement": "IC50", "setting": "second compound 0.0316 µM", "value": "> 10", "unit": "µM"},
      {"measurement": "IC50", "setting": "second compound 0.1 µM", "value": "> 10", "unit": "µM"},
      {"measurement": "IC50", "setting": "second compound 0.316 µM", "value": "> 10", "unit": "µM"},
      {"measurement": "IC50", "setting": "second compound 1 µM", "value": "> 10", "unit": "µM"},
      {"measurement": "IC50", "setting": "second compound 3.16 µM", "value": "> 10", "unit": "µM"},
      {"measurement": "IC50", "setting": "second compound 10 µM", "value": "> 10", "unit": "µM"},
      {"measurement": "viability, T/C", "setting": "[1]", "value": 75.5, "unit": "%"},
      {"measurement": "viability, T/C", "setting": "[2]", "value": 81.8, "unit": "%"},
      {"measurement": "viability, T/C", "setting": "[3]", "value": 84.8, "unit": "%"},
      {"measurement": "viability, T/C", "setting": "[4]", "value": 76.1, "unit": "%"},
      {"measurement": "viability, T/C", "setting": "[5]", "value": 76, "unit": "%"},
      {"measurement": "viability, T/C", "setting": "[6]", "value": 64.4, "unit": "%"},
      {"measurement": "viability, T/C", "setting": "[7]", "value": 84, "unit": "%"},
      {"measurement": "viability, T/C", "setting": "[8]", "value": 81.9, "unit": "%"},
      {"measurement": "viability, T/C", "setting": "[9]", "value": 80.6, "unit": "%"},
      {"measurement": "viability, T/C", "setting": "[10]", "value": 75.6, "unit": "%"},
      {"measurement": "viability, T/C", "setting": "[11]", "value": 72.9, "unit": "%"},
      {"measurement": "viability, T/C", "setting": "[12]", "value": 66.8, "unit": "%"},
      {"measurement": "viability, T/C", "setting": "[13]", "value": 93.5, "unit": "%"},
      {"measurement": "viability, T/C", "setting": "[14]", "value": 79.9, "unit": "%"},
      {"measurement": "viability, T/C", "setting": "[15]", "value": 74.2, "unit": "%"},
      {"measurement": "viability, T/C", "setting": "[16]", "value": 69.5, "unit": "%"},
      {"measurement": "viability, T/C", "setting": "[17]", "value": 83.7, "unit": "%"},
      {"measurement": "viability, T/C", "setting": "[18]", "value": 65.9, "unit": "%"},
      {"measurement": "viability, T/C", "setting": "[19]", "value": 94.1, "unit": "%"},
      {"measurement": "viability, T/C", "setting": "[20]", "value": 79.6, "unit": "%"},
      {"measurement": "viability, T/C", "setting": "[21]", "value": 68.1, "unit": "%"},
      {"measurement": "viability, T/C", "setting": "[22]", "value": 73.9, "unit": "%"},
      {"measurement": "viability, T/C", "setting": "[23]", "value": 73.6, "unit": "%"},
      {"measurement": "viability, T/C", "setting": "[24]", "value": 55.5, "unit": "%"},
      {"measurement": "viability, T/C", "setting": "[25]", "value": 92.3, "unit": "%"},
      {"measurement": "viability, T/C", "setting": "[26]", "value": 98.6, "unit": "%"},
      {"measurement": "viability, T/C", "setting": "[27]", "value": 73.8, "unit": "%"},
      {"measurement": "viability, T/C", "setting": "[28]", "value": 85.3, "unit": "%"},
      {"measurement": "viability, T/C", "setting": "[29]", "value": 80.9, "unit": "%"},
      {"measurement": "viability, T/C", "setting": "[30]", "value": 73.5, "unit": "%"},
      {"measurement": "viability, T/C", "setting": "[31]", "value": 90.2, "unit": "%"},
      {"measurement": "viability, T/C", "setting": "[32]", "value": 85.9, "unit": "%"},
      {"measurement": "viability, T/C", "setting": "[33]", "value": 88.3, "unit": "%"},
      {"measurement": "viability, T/C", "setting": "[34]", "value": 82, "unit": "%"},
      {"measurement": "viability, T/C", "setting": "[35]", "value": 68.5, "unit": "%"},
      {"measurement": "viability, T/C", "setting": "[36]", "value": 59.7, "unit": "%"}
    ]},
    {"smiles": "C=CC(=O)N1CCN(c2nc(=O)n(-c3c(C)ccnc3C(C)C)c3nc(-c4c(O)cccc4F)c(F)cc23)C(C)C1", "note": "(centres undefined) + Cc1cccc(N(C)C(=O)C2C(O)CCN2c2nc(C)cc(C(F)(F)F)c2C#N)c1", "values": [
      {"measurement": "IC50", "setting": "second compound 0.0316 µM", "value": "> 10", "unit": "µM"},
      {"measurement": "IC50", "setting": "second compound 0.1 µM", "value": "> 10", "unit": "µM"},
      {"measurement": "IC50", "setting": "second compound 0.316 µM", "value": "> 10", "unit": "µM"},
      {"measurement": "IC50", "setting": "second compound 1 µM", "value": "> 10", "unit": "µM"},
      {"measurement": "IC50", "setting": "second compound 3.16 µM", "value": "> 10", "unit": "µM"},
      {"measurement": "IC50", "setting": "second compound 10 µM", "value": "> 10", "unit": "µM"},
      {"measurement": "viability, T/C", "setting": "[1]", "value": 101, "unit": "%"},
      {"measurement": "viability, T/C", "setting": "[2]", "value": 104, "unit": "%"},
      {"measurement": "viability, T/C", "setting": "[3]", "value": 102, "unit": "%"},
      {"measurement": "viability, T/C", "setting": "[4]", "value": 104, "unit": "%"},
      {"measurement": "viability, T/C", "setting": "[5]", "value": 111, "unit": "%"},
      {"measurement": "viability, T/C", "setting": "[6]", "value": 93.5, "unit": "%"},
      {"measurement": "viability, T/C", "setting": "[7]", "value": 98.4, "unit": "%"},
      {"measurement": "viability, T/C", "setting": "[8]", "value": 95.6, "unit": "%"},
      {"measurement": "viability, T/C", "setting": "[9]", "value": 98.7, "unit": "%"},
      {"measurement": "viability, T/C", "setting": "[10]", "value": 103, "unit": "%"},
      {"measurement": "viability, T/C", "setting": "[11]", "value": 100, "unit": "%"},
      {"measurement": "viability, T/C", "setting": "[12]", "value": 97.7, "unit": "%"},
      {"measurement": "viability, T/C", "setting": "[13]", "value": 103, "unit": "%"},
      {"measurement": "viability, T/C", "setting": "[14]", "value": 106, "unit": "%"},
      {"measurement": "viability, T/C", "setting": "[15]", "value": 105, "unit": "%"},
      {"measurement": "viability, T/C", "setting": "[16]", "value": 105, "unit": "%"},
      {"measurement": "viability, T/C", "setting": "[17]", "value": 99.5, "unit": "%"},
      {"measurement": "viability, T/C", "setting": "[18]", "value": 102, "unit": "%"},
      {"measurement": "viability, T/C", "setting": "[19]", "value": 95.8, "unit": "%"},
      {"measurement": "viability, T/C", "setting": "[20]", "value": 105, "unit": "%"},
      {"measurement": "viability, T/C", "setting": "[21]", "value": 106, "unit": "%"},
      {"measurement": "viability, T/C", "setting": "[22]", "value": 99.8, "unit": "%"},
      {"measurement": "viability, T/C", "setting": "[23]", "value": 112, "unit": "%"},
      {"measurement": "viability, T/C", "setting": "[24]", "value": 91.4, "unit": "%"},
      {"measurement": "viability, T/C", "setting": "[25]", "value": 99.2, "unit": "%"},
      {"measurement": "viability, T/C", "setting": "[26]", "value": 104, "unit": "%"},
      {"measurement": "viability, T/C", "setting": "[27]", "value": 107, "unit": "%"},
      {"measurement": "viability, T/C", "setting": "[28]", "value": 102, "unit": "%"},
      {"measurement": "viability, T/C", "setting": "[29]", "value": 99.1, "unit": "%"},
      {"measurement": "viability, T/C", "setting": "[30]", "value": 96.7, "unit": "%"},
      {"measurement": "viability, T/C", "setting": "[31]", "value": 100, "unit": "%"},
      {"measurement": "viability, T/C", "setting": "[32]", "value": 90.8, "unit": "%"},
      {"measurement": "viability, T/C", "setting": "[33]", "value": 101, "unit": "%"},
      {"measurement": "viability, T/C", "setting": "[34]", "value": 102, "unit": "%"},
      {"measurement": "viability, T/C", "setting": "[35]", "value": 94.4, "unit": "%"},
      {"measurement": "viability, T/C", "setting": "[36]", "value": 88.8, "unit": "%"}
    ]}
  ]
}
